Results on five compounds are retold here after EP1285920A1, “C10 Ester sustituted taxanes as antitumor agents” (Florida State University Research Foundation, Inc., priority 2001, dated 2003).

Where two headings read alike, the source gives them in different places. Where only a bound is given, the exact number is not on record here.

Series [1] deals with HCT116. Description: In Vitro cytotoxicity measured by the cell colony formation assay. Type of series: cell-based, human. To be noted: Homo sapiens, HCT-116; read-out: IN VITRO ID 50 HCT116. A digest of the protocol:
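Four hundred cells per dish in McCoy's 5a medium with 10% FBS were allowed to attach for 5 h at 37 °C. They were then exposed to compound for 72 h at 37 °C, added as a 10× stock made fresh in medium. After HBSS rinsing and refeeding, colonies were counted after 7 days.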

For series [2], the system named is HCT116 carcinoma. As to conditions: for Toxic Deaths: mg/kg: Taxol 36 (split doses), 0503 72.6, 0536 49, 0663 159, 0670 123, 0687 159, 0706 108, 0908 159, 0947 76.9, 0951 72.6, 0983 72.6, 0999 49, 1003 49, 1011 108. The protocol:
Antitumor compounds were formulated for an i.v. dosing regime and were prepared in the following vehicle: 5% ethanol, 5% Cremophor and 90% isotonic saline.
The antitumor compounds were given intravenously in a single maximum tolerated dose (MTD) appropriate for each compound. […] The MTDs for the antitumor compounds were calculated from earlier single dose data for mice receiving i.v. administration of these compounds. All vehicle control animals in the split dosing regimes were dosed twice intravenously with half of the total volume being given separated by one hour. The study was terminated on Day 60.
A complete response is obtained if the tumor is not palpable at the end of the study.

Series [3] deals with MX-1 carcinoma. To be noted: for Toxic Deaths: mg/kg: Taxol 36 (split dose), 0503 72.6, 0536 49, 0663 159, 0670 123, 0687 159, 0706 108, 0908 159, 0947 76.9, 0951 72.6, 0983 67.4, 0999 49, 1003 49, 1011 108. On the procedure: Thirteen antitumor compounds were formulated for an i.v. dosing regime (single i.v. bolus, qd x 1 schedule) prepared in the following vehicle: 5% ethanol, 5% Cremophor and 90% isotonic saline.
The antitumor compounds were given intravenously in a single maximum tolerated dose (MTD) appropriate for each compound. […] The MTDs for the antitumor compounds were calculated from earlier single dose data for mice receiving i.v. administration of these compounds. All vehicle control animals in the split dosing regimes were dosed twice intravenously with half the total volume being given separated by one hour. The study was terminated on Day 60.
A complete response is obtained if the tumor is not palpable at the end of the study. […]

The subject of series [4] is A2780 ovarian carcinoma. On the procedure:
Dosing was initiated on Day 1. […] Taxotere was given i.v. on a qd x 1 schedule at a dose of 70 mg/kg. […] The study was terminated on Day 60. Treatment groups are detailed in Table 7.

Where [5] appears, read: number of 5 mice, i.v. qd x 1 at MTD, Day 60, doses as in E3.
Setting [6] is: number of 5 mice, i.v. qd x 1 at MTD, Day 60.
Where [7] appears, read: number of 6 mice, i.v. qd x 1 at MTD, Day 60, doses as in E17.
Where [8] appears, read: number of 6 mice, i.v. qd x 1 at MTD, Day 60.
Setting [9] is: A2780, i.v. qd x 1, five mice per group.
The mark [10] stands for this setting: number of mice, i.v. qd x 1 at estimated MTD (Taxol 24 mg/kg, Taxotere 70 mg/kg, 0983 72.6 mg/kg), 5 mice/group (Taxotere 6).
Where [11] appears, read: number of mice, i.v. qd x 1 at estimated MTD (Taxol 24 mg/kg, Taxotere 70 mg/kg, 0983 72.6 mg/kg), 5 mice/group (Taxotere 6), Day 60.
Setting [12] is: i.v. qd x 1 at MTD, 5 mice/group, Day 60, doses as in E3.
Where [13] appears, read: number of 5 mice, tumor did not reach 2.0 g by end of study, i.v. qd x 1 at MTD, Day 60, doses as in E3.
The mark [14] stands for this setting: number of 5 mice, tumor not palpable at end of study, i.v. qd x 1 at MTD, Day 60, doses as in E3.
Where [15] appears, read: number of 5 mice, tumor smaller than on Day 1, i.v. qd x 1 at MTD, Day 60, doses as in E3.
Where [16] appears, read: i.v. qd x 1 at MTD, 6 mice/group, Day 60, doses as in E17.
Where [17] appears, read: number of 6 mice, tumor did not reach 2.0 g by end of study, i.v. qd x 1 at MTD, Day 60, doses as in E17.
The mark [18] stands for this setting: number of 6 mice, tumor not palpable at end of study, i.v. qd x 1 at MTD, Day 60, doses as in E17.
Setting [19] is: number of 6 mice, tumor smaller than on Day 1, i.v. qd x 1 at MTD, Day 60, doses as in E17.

On to `CCC(=O)O[C@H]1C(=O)[C@@]2(C)[C@H]([C@H](OC(=O)c3ccccc3)[C@]3(O)C[C@H](OC(=O)[C@H](O)[C@@H](NC(=O)c4ccccc4)c4ccco4)C(C)=C1C3(C)C)[C@]1(OC(C)=O)CO[C@@H]1C[C@@H]2O` [Compound 0663], for which the IC50 in series [1] was less than 1 nM. The “Partial Response” value in series [2] (iv) stood at 2; in series [3] (iv) it was 0. For the same compound, the “Complete Response” value is 2 in series [2] (iv, 1440 h) and 4 in series [3] (iv, 1440 h). Also, the “Mean Score” value in series [2] (iv, 1440 h) was 7.6 ± 1.9; in series [3] (iv, 1440 h), 7.7 ± 1.5. Besides, the “Stable Disease” value in series [2] (iv, 1440 h) came out at 0; in series [3] (iv, 1440 h), 1. Further, the Survivors in series [2] (setting [5]) is 4; in series [3] (setting [7]), 5. Moreover, the “Toxic Deaths” value in series [2] (setting [6]) amounted to 1; in series [3] (setting [8]) it was 0. Moreover, in series [4] (A2780, i.v. qd x 1), the “survival extension compared to Group 1 controls” value was determined as 214%. For the same compound, the total response rate result in series [4] (setting [9]) is on record as “at least 20%”.

`CCCC(=O)O[C@H]1C(=O)[C@@]2(C)[C@H]([C@H](OC(=O)c3ccccc3)[C@]3(O)C[C@H](OC(=O)[C@H](O)[C@@H](NC(=O)OC(C)(C)C)c4cccs4)C(C)=C1C3(C)C)[C@]1(OC(C)=O)CO[C@@H]1C[C@@H]2O` [Compound 1003]: the IC50 in series [1] was less than 1 nM. Moreover, in series [2] (iv), the “Partial Response” value was 3. In addition, in series [2] (iv, 1440 h), the “Complete Response” value was 2, the “Mean Score” value came to 9.4 ± 0.2 and the “Stable Disease” value stood at 0. Further, in series [2] (setting [5]), the Survivors is on record as 5. In addition, the “Toxic Deaths” value in series [2] (setting [6]) is 0. Besides, the “Partial Response” value in series [3] (iv) is 0. For the same compound, in series [3] (iv, 1440 h), the “Complete Response” value turned out to be 4, the “MDS (n)” value is reported as 29.1 ± 10.8 (2) days, the “Mean Score” value was determined as 7.3 ± 1.7 and the “Stable Disease” value is reported as 0. This compound also registered a Survivors in series [3] (setting [7]) of 4. Moreover, the “Toxic Deaths” value in series [3] (setting [8]) was 0. In series [4] (setting [9]), the partial responses is given as 2 and the total response rate result is given as “at least 20%”.

Turning to `CCCC(=O)O[C@H]1C(=O)[C@@]2(C)[C@H]([C@H](OC(=O)c3ccccc3)[C@]3(O)C[C@H](OC(=O)[C@H](O)[C@H](C=C(C)C)NC(=O)OC(C)(C)C)C(C)=C1C3(C)C)[C@]1(OC(C)=O)CO[C@@H]1C[C@@H]2O` [Compound 0947], the IC50 in series [1] was less than 1 nM. For the same compound, the “Partial Response” value in series [2] (iv) stood at 4; in series [3] (iv), 0. Further, the “Complete Response” value in series [2] (iv, 1440 h) was determined as 1; in series [3] (iv, 1440 h) it was 3; in series [4] (iv, 72.6 mg/kg, 1440 h), 0. Also, the “Mean Score” value amounted to 9.2 ± 0.2 in series [2] (iv, 1440 h); 5.5 ± 2.1 in series [3] (iv, 1440 h); 4.8 ± 1.8 in series [4] (iv, 72.6 mg/kg). Moreover, the “Stable Disease” value in series [2] (iv, 1440 h) is 0; in series [3] (iv, 1440 h) it was 0; in series [4] (iv, 72.6 mg/kg, 1440 h), 0. Also, the Survivors in series [2] (setting [5]) is 5; in series [3] (setting [7]), 3; in series [4] (setting [11]), 2. Also, the “Toxic Deaths” value in series [2] (setting [6]) is 0; in series [3] (setting [8]), 2; in series [4] (setting [10]), 1. Moreover, the partial responses in series [4] (setting [9]) came to 2. For the same compound, the total response rate entry in series [4] (setting [9]) was “at least 20%”. For the same compound, the “MDS (n)” value in series [4] (iv, 72.6 mg/kg, 1440 h) is recorded as 32.7 ± 5.4 (2) days. Besides, the “Partial Respons” value in series [4] (iv, 72.6 mg/kg, 1440 h) was 2.

In the case of `CC(=O)O[C@@]12CO[C@@H]1C[C@H](O)[C@@]1(C)C(=O)[C@H](OC(=O)C3CC3)C3=C(C)[C@@H](OC(=O)[C@H](O)[C@@H](NC(=O)c4ccccc4)c4ccco4)C[C@@](O)([C@@H](OC(=O)c4ccccc4)[C@H]21)C3(C)C` [Compound 0908], the IC50 in series [1] was less than 1 nM. Also, the “Mean Score” value in series [2] (setting [12]) is on record as 9.2 ± 0.2; in series [3] (setting [16]), 9.7 ± 0.3; in series [4] (tumor scoring system, i.v. qd x 1 at estimated MTD (Taxol 24 mg/kg, Taxotere 70 mg/kg, 0983 72.6 mg/kg), 5 mice/group (Taxotere 6)) it was 3.8 ± 1.5. The “Stable Disease” value in series [2] (setting [13]) is given as 0; in series [3] (setting [17]) it was 0; in series [4] (setting [11]), 1. Further, the “Complete Response” value in series [2] (setting [14]) was 1; in series [3] (setting [18]), 5; in series [4] (setting [11]) it was 0. The “Partial Response” value in series [2] (setting [15]) was 4; in series [3] (setting [19]) it was 1. Further, the Survivors in series [2] (setting [5]) was 5; in series [3] (setting [7]), 6; in series [4] (setting [11]) it was 2. The “Toxic Deaths” value in series [2] (setting [6]) is reported as 0; in series [3] (setting [8]) it was 0; in series [4] (setting [9]) it was “one”; in series [4] (setting [10]), 1. In series [3] (MX-1, single i.v. MTD), the “treated animals with durable complete responses and partial responses” value amounted to 100%. In series [4] (A2780, i.v. qd x 1), the “survival extension compared to Group 1 controls” value is 268%. In addition, the MDS in series [4] (A2780, i.v. qd x 1 (compounds estimated MTD; Taxol 24 mg/kg split; Taxotere 70 mg/kg), days until tumor 2.0 g, ended Day 60) is 43.1 days. Besides, the total response rate entry in series [4] (setting [9]) is recorded as “at least 20%”. Also, the “MDS (n)” value in series [4] (mean days of survival until neoplasm reached 2.0 g, i.v. qd x 1 at estimated MTD (Taxol 24 mg/kg, Taxotere 70 mg/kg, 0983 72.6 mg/kg), 5 mice/group (Taxotere 6), terminated Day 60) was 43.1 ± 8.0 (2) days. Besides, in series [4] (setting [11]), the “Partial Respons” value was 1.

In the case of `CCCC(=O)O[C@H]1C(=O)[C@@]2(C)[C@H]([C@H](OC(=O)c3ccccc3)[C@]3(O)C[C@H](OC(=O)[C@H](O)[C@@H](NC(=O)OC(C)(C)C)c4ccoc4)C(C)=C1C3(C)C)[C@]1(OC(C)=O)CO[C@@H]1C[C@@H]2O` [Compound 0999], the IC50 in series [1] is less than 1 nM. The “Mean Score” value in series [2] (setting [12]) was found to be 9.2 ± 0.2; in series [3] (setting [16]) it was 8.2 ± 1.2. For the same compound, the “Stable Disease” value in series [2] (setting [13]) and in series [3] (setting [17]) was 0 each time. Besides, the figures for the “Complete Response” value in series [2] (setting [14]) and in series [3] (setting [18]) were 1 and 4, respectively. The results for the “Partial Response” value in series [2] (setting [15]) and in series [3] (setting [19]) were 4 and 1, respectively. Also, the Survivors in series [2] (setting [5]) and in series [3] (setting [7]) was 5 throughout. In addition, the “Toxic Deaths” value in series [2] (setting [6]) and in series [3] (setting [8]) was 0 throughout. In addition, in series [4] (setting [9]), the total response rate entry was “at least 20%”.
